Patent US6132944A, “Photographic element containing high dye-yield couplers” (Eastman Kodak Company, priority 1999, dated 2000)
Where two headings read alike, the source gives them in different places. Blank lines part the entries; values can stand above or below the compound they belong to.

Experiments:
[1] = pKa by spectrophotometric titration in aqueous Triton X-100; assay type: physicochemical; conditions: for pKa: Table I; for pK1: first ionization, sulfonamide in conjugation with naphthalene; for pK2: second sulfonamide (in conjugation with the phenyl ring); for pKa (Sol. group): Table II
Procedure: In the following examples, the pKa values were determined by standard procedures using spectrophotometric titration of the compounds of interest. The spectrophotometric technique involves measuring the absorption spectra of the compound of interest in a range of buffer solutions. The absorption data (optical densities, ODobsd) can then be used to determine the corresponding pKa value(s) according to eq 1-3
ODobsd=ODHnA +ODHn-1A + (1)
=b[HnA]εHnA +b[Hn-1A]εHn-1A (2)
=b[total]fHnA εHnA +b[total]fHn-1A
Typically, the experimental constants (b and [total]) are combined with the extinction coefficient (ε) and expressed as the maximum optical density (ODmax) for a given species. Eq 3 then becomes,
=ODmaxHnA fHnA +ODmaxHn-1A fHn-1A (4)
The fraction of a given species (f) is a function of the pH and pKa values.
For example, for a system with one titratable proton eq 5-6,
Thus, the pKa and ODmax values can be determined from a set of XY pair data (pH, ODobsd) using a non linear least squares fit.
This technique relies on a difference in extinction coefficient between the species of interest at a given wavelength. This can be seen by inspection as a change in the absorption spectrum over a given pH range. In addition to this macroscopic data, (the experimental pKa values), the spectrophotometric technique can also provide microscopic information, i.e., information about the relationship between the individual titratable groups and the pKa values. In this manner, a pKa value may be attributed to titration of a particular group in a molecule, e.g., a solubilizing group.
The absorption spectra over a range of pH values and pKa values for the model sulfonamides such as Comp-11 and Comp-8 (defined for the examples hereinafter) as well as the coupler Comp-12 may be plotted. In model sulfonamide Comp-11 (pK 6.65), the optical density change resulting from ionization of the sulfonamide which is in conjugation with the naphthalene group may be pinpointed. Model sulfonamide Comp-8 comprises the entire solubilizing group pK1 7.03, pK2 10.00). […] Finally, in the spectrophotometric titration of the coupler Comp-12, the ionization of both sulfonamides in the solubilizing group as well as ionization of the coupling site pK1 6.85, pK2 9.85, pK3 10.84) can be seen.
In practice, a stock solution of the appropriate compound (1×10^-4 M) and Triton X-100 (1.2%) in water was prepared. The Triton X-100 (CAS Registry No. [9002-93-1], polyoxyethylene(10) isooctylcyclohexyl ether) was obtained from Aldrich Chemical Co. and used as received.
To 1.50 mL of the appropriate phosphate buffer (μ=0.75) were added 1.50 mL of the stock solution. The solution was agitated to ensure adequate mixing, and its absorption spectrum and pH were measured. A non linear least squares method was then used to fit the data to a one, two, or three pKa value model as appropriate.

[2] = Table II, cited from earlier work
[3] = sol group, aqueous Triton X-100

pKa [1, 3]: 8.9
SMILES: CCCCN(C(=O)OC(C(=O)Nc1ccccc1OC)C(=O)c1cccc(NS(=O)(=O)c2ccc(C)cc2)c1)c1ccc(C=C(C#N)c2nc3cc(C(C)(C)CC(C)(C)C)ccc3o2)c(C)c1 (stereo not drawn) [Comp-6]

pK1 [1]: 7.03 | pK2 [1]: 10.00
SMILES: CS(=O)(=O)Nc1ccc(S(=O)(=O)Nc2ccc(Cl)cc2)c2ccccc12 [Comp-8]

pKa (Sol. group) ([1]; aqueous Triton X-100): 8.7
SMILES: CC(=O)c1cccc(NS(=O)(=O)c2ccc(C)cc2)c1 [Comp-9]

pKa at the coupling site ([1]; Example 2): 10.3 | pKa (Sol. group) ([1]; aqueous Triton X-100): 8.8
SMILES: COc1ccccc1NC(=O)CC(=O)c1cccc(NS(=O)(=O)c2ccc(C)cc2)c1 [Comp-10]

pKa [1, 3]: 7.2
SMILES: Cc1cc(N(C(=O)OC(C(=O)Nc2cc(NS(=O)(=O)c3ccc(O)c(NS(C)(=O)=O)c3)ccc2Cl)C(=O)C(C)(C)C)C2CCCC2)ccc1C=C(C#N)c1nc2cc(C(C)(C)CC(C)(C)C)ccc2o1 (stereo not drawn) [Inv-1]

pKa [1, 3]: 8.7
SMILES: COc1ccc(C(=O)C(OC(=O)N(c2ccc(C=C(C#N)c3nc4cc(C(C)(C)CC(C)(C)C)ccc4o3)c(C)c2)C2CCCC2)C(=O)Nc2cc(NS(=O)(=O)c3ccc(O)cc3)ccc2Cl)cc1 (stereo not drawn) [Inv-3]

pKa [1, 3]: 6.5
SMILES: CCN(C(=O)OC(C(=O)Nc1cc(NS(=O)(=O)c2c(NS(C)(=O)=O)ccc3ccccc23)ccc1Cl)C(=O)c1ccc(OC)cc1)c1ccc(C=C(C#N)c2nc3cc(C(C)(C)CC(C)(C)C)ccc3o2)c(C)c1 (stereo not drawn) [Inv-4]

pKa [1, 3]: 6.7
SMILES: CCN(C(=O)OC(C(=O)Nc1cc(NS(=O)(=O)c2ccc(NS(C)(=O)=O)c3ccccc23)ccc1Cl)C(=O)c1ccc(OC)cc1)c1ccc(C=C(C#N)c2nc3cc(C(C)(C)CC(C)(C)C)ccc3o2)c(C)c1 (stereo not drawn) [Inv-5]

pKa [1, 3]: 7.4
SMILES: Cc1cc(N(C(=O)OC(C(=O)Nc2cc(NS(=O)(=O)c3ccc(NS(C)(=O)=O)cc3O)ccc2Cl)C(=O)C(C)(C)C)C2CCCC2)ccc1C=C(C#N)c1nc2cc(C(C)(C)CC(C)(C)C)ccc2o1 (stereo not drawn) [Inv-6]

pKa [1, 3]: 7.9
SMILES: CCN(C(=O)OC(C(=O)Nc1cc(NS(=O)(=O)c2ccc(NS(C)(=O)=O)cc2)ccc1Cl)C(=O)c1ccc(OC)cc1)c1ccc(C=C(C#N)c2nc3cc(C(C)(C)CC(C)(C)C)ccc3o2)c(C)c1 (stereo not drawn) [Inv-7]

pKa [1, 3]: 6.1
SMILES: CCN(C(=O)OC(C(=O)Nc1cc(NS(=O)(=O)c2ccccc2NS(C)(=O)=O)ccc1Cl)C(=O)c1ccc(OC)cc1)c1ccc(C=C(C#N)c2nc3cc(C(C)(C)CC(C)(C)C)ccc3o2)c(C)c1 (stereo not drawn) [Inv-8]

pKa [1, 3]: 6.1
SMILES: COc1ccc(C(=O)C(OC(=O)N(c2ccc(C=C(C#N)c3nc4cc(C(C)(C)CC(C)(C)C)ccc4o3)c(C)c2)C2CCCC2)C(=O)Nc2cc(NS(=O)(=O)c3ccccc3NS(C)(=O)=O)ccc2Cl)cc1 (stereo not drawn) [Inv-10]

The next lines start with the compound.

SMILES: CCCCCCCCCCCCCCCCS(=O)(=O)Nc1ccc(Cl)c(NC(=O)C(OC(=O)N(CC)c2ccc(N=Nc3ccc(C(=O)OCCCCCCCCCCCC)cc3)cc2)C(=O)C(C)(C)C)c1 (stereo not drawn) [Comp-1]
pKa [1, 3]: 9.5

SMILES: CCCCCCCCCCCCCCCCNS(=O)(=O)c1ccc(Cl)c(NC(=O)C(OC(=O)N(CCCC)c2ccc(C=C(C#N)c3nc4ccccc4o3)c(C)c2)C(=O)c2ccc(OC)cc2)c1 (stereo not drawn) [Comp-2]
pKa [1, 3]: 13

SMILES: CCCCCCCCCCCCCCCCNS(=O)(=O)c1ccc(Cl)c(NC(=O)C(OC(=O)N(CCCCCCCCCCCC)c2ccc(C=C(C#N)c3nc4ccccc4o3)c(C)c2)C(=O)c2ccc(OC)cc2)c1 (stereo not drawn) [Comp-3]
pKa [1, 3]: 13

SMILES: CCCN(C(=O)OC(C(=O)Nc1ccccc1OC)C(=O)c1cccc(NS(=O)(=O)c2ccc(C)cc2)c1)c1ccc(C=C(C#N)c2nc3c(C)cc(C)cc3s2)c(C)c1 (stereo not drawn) [Comp-4]
pKa ([1]; inferred from Comp-5 and Comp-6): 8.8

SMILES: CCCCCCCN(C(=O)OC(C(=O)Nc1ccccc1OC)C(=O)c1cccc(NS(=O)(=O)c2ccc(C)cc2)c1)c1ccc(C=C(C#N)c2nc3ccc(C)cc3o2)c(C)c1 (stereo not drawn) [Comp-5]
pKa [1, 3]: 8.8

SMILES: CS(=O)(=O)c1ccc(O)cc1 [Comp-7]
pKa (Sol. group) ([2]; in water (Bordwell and Cooper)): 7.8

SMILES: CN(C)S(=O)(=O)c1ccc(NS(C)(=O)=O)c2ccccc12 [Comp-11]
pKa (Sol. group) ([1]; aqueous Triton X-100): 6.6 | pK ([1]; sulfonamide in conjugation with the naphthalene group): 6.65

SMILES: CC(C)(C)C(=O)CC(=O)Nc1cc(NS(=O)(=O)c2ccc(NS(C)(=O)=O)c3ccccc23)ccc1Cl [Comp-12]
pKa (Sol. group) ([1]; aqueous Triton X-100): 6.8 | pK1 [1]: 6.85 | pK2 [1]: 9.85 | pK3 ([1]; third ionization): 10.84

SMILES: CCCCCCCCCCCCCCCCS(=O)(=O)Nc1ccc(Cl)c(NC(=O)CC(=O)C(C)(C)C)c1 [Comp-16]
pKa (Sol. group) ([1]; aqueous Triton X-100): 9.4

SMILES: CCCCCCCCCCCCCCCCS(=O)(=O)Nc1ccc(Cl)c(NC(C)=O)c1 [Comp-17]
pKa (Sol. group) ([1]; aqueous Triton X-100): 9.5

SMILES: CNS(=O)(=O)c1ccccc1 [Comp-18]
pKa (Sol. group) ([2]; in water (King)): 11.43

SMILES: CCCCCCCCCCCCCCCCNS(=O)(=O)c1ccccc1 [Comp-19]
pKa (Sol. group) ([1]; aqueous Triton X-100): 13.0

SMILES: CC(=O)Nc1cc(NS(=O)(=O)c2ccc(O)cc2)ccc1Cl [Comp-20]
pKa (Sol. group) ([1]; aqueous Triton X-100): 8.1

SMILES: Cc1cc(N(C(=O)OC(C(=O)Nc2cc(NS(=O)(=O)c3ccc(O)cc3)ccc2Cl)C(=O)C(C)(C)C)C2CCCC2)ccc1C=C(C#N)c1nc2cc(C(C)(C)CC(C)(C)C)ccc2o1 (stereo not drawn) [Comp-21]
pKa [1, 3]: 8.8

SMILES: Cc1cc(N(C(=O)OC(C(=O)Nc2cc(NS(=O)(=O)c3cccc(NS(C)(=O)=O)c3)ccc2Cl)C(=O)C(C)(C)C)C2CCCC2)ccc1C=C(C#N)c1nc2cc(C(C)(C)CC(C)(C)C)ccc2o1 (stereo not drawn) [Inv-9]
pKa [1, 3]: 7.9
